Laboratory results published in patent US12329780B2, “Acute and chronic mitochondrial electron transport chain dysfunction treatments and graphenic materials for use thereof” (WILLIAM MARSH RICE UNIVERSITY, priority 2017, dated 2025).

Tests used:
[1] = test system: bEnd0.3 murine cerebrovascular endothelial cells; experiment: Hydrogen peroxide challenge assay in bEnd.3 cells (Calcein AM live cell counts); type: cell-based; conditions: MB 0, 5, 10 and 20 μM, with or without 100 μM H2O2
Description: The differential properties of MB and PEG-HCCs were tested by using a hydrogen peroxide challenge assay in cultured cells. Hydrogen peroxide exerts toxic effects on endothelial cells through at least four routes: hydroxyl and superoxide radical formation by reacting with reduced species, nitric oxide synthase (NOS) and NADPH oxidase (NOX) stimulation and uncoupling, modulation of mitochondrial permeability, and the Fenton reaction. This employs administering the test agent after the hydrogen peroxide since efficacy under post-injury conditions would be critical for clinical translation.
PEG-HCCs and MB were compared in two standard hydrogen peroxide challenge assays. In the first experiment, bEnd0.3 murine cerebrovascular endothelial cells were treated with PEG-HCCs, and 100 μM H2O2 with and without 8 mg/L PEG-HCCs. The cells were incubated overnight and then then detached and counted using a hemocytometer and Calcein AM to label live cells. (Live cell counts n=32).
A similar assay was performed with MB at 0, 5, 10 and 20 μM given 15 minutes after initial exposure to 100 μM H2O2. […] The inclusion of 100 μM H2O2 further reduced survival.

[2] = Midpoint reduction potential; type: physicochemical
From the text: PEG-HCCs and MB are electrochemically similar with respect to midpoint reduction potentials of +11 mV and ˜0 mV respectively, although PEG-HCCs have a much broader range. PEG-HCCs appear to have similar effects on the electron transport chain as described for MB.

[3] = target: ferricytochrome C (CytCox) (Homo sapiens, UniProt P99999); experiment: ETS kinetics: reduction of ferricytochrome C by NADH; type: biochemical; conditions: 4 mg/L catalyst, CytCox 40 μM, NADH 0-5 mM
[4] = Deferoxamine degradation in solution by 262 nm UV absorbance; type: physicochemical
From the text: FIG. 12 is a graph in which Y-axis is units of deferoxamine remaining in solution through monitoring of the 262 nm absorbance by UV spectroscopy. Trend line 1203 illustrates deferoxamine degradation in PBS solution (DEF/PBS). Trend line 1201 illustrates the degradation of deferoxamine in a PBS solution and dilute PEG-HCC (DEF/PEG). Trend line 1202 illustrates deferoxamine degradation in a PBS that had nitrogen gas bubbled through it (DEF/N2).
An additional advantage of this formulation is that it prevents the oxidative breakdown of the deferoxamine molecule, likely through an interaction with the antioxidant capacity of the parent nanomaterial (FIG. 12). This is a tremendous advantage clinically because current deferoxamine has a short shelf life when prepared for intravenous administration, which could be dramatically extended through this formulation and thereby be useful for settings other than the hospital, such as in a battle field, automobile trauma, or other setting in which tissue injury must be rapidly treated.

[5] = administered intravenously by itself; cited from earlier work

Sequence of ferricytochrome C (CytCox) (P99999 whole entry): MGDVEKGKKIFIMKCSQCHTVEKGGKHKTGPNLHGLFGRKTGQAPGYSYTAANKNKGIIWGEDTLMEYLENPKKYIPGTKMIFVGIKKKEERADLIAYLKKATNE

Row | Midpoint reduction potential [2] [mV] | Vmax [3] [M/s] | Deferoxamine degradation in solution ([4]; PBS solution with dilute PEG-HCC (DEF/PEG)) | Deferoxamine degradation in solution ([4]; PBS with nitrogen gas bubbled through (DEF/N2)) | SMILES | Cell survival [1] | Half-life in circulation (t1/2) [5]
1 | ~0 | 1.432e-07 |  |  | CN(C)c1ccc2nc3ccc(=[N+](C)C)cc-3sc2c1 [MB, Methylene blue] | dose-dependent reduction in cell survival | 
2 |  |  | no detectable degradation | no detectable degradation | CC(=O)N(O)CCCCCNC(=O)CCC(=O)N(O)CCCCCNC(=O)CCC(=O)N(O)CCCCCN [deferoxamine] |  | ≈ 0.3 h
